According to EP4656642A1, “ESTROGEN RECEPTOR PROTEOLYSIS TARGETING CHIMERA COMPOUND AND USE THEREOF” (GAN & LEE PHARM CO., LTD, priority 2023, dated 2024):
pIC50: −log10 of the molar value.

What was measured:
Type in all cases: cell-based
[1] = tested on: MCF-7 cells; test: Inhibition of cell proliferation of MCF-7 cells (CCK-8, 9 days); details: treated for 9 days, CCK-8 kit (Table 6)
Source text: Test Example 4 Inhibitory effect of the PROTAC compounds disclosed in the present disclosure on cell proliferation of MCF-7 cells
The complete medium required for MCF-7 cells (source ATCC) was DMEM (gibco, Product number :11995-065) basal medium containing 10% fetal bovine serum. MCF-7 cells were inoculated in 96-well plates at a density of 800 cells/well, and different concentrations of the PROTAC compounds 1-55 provided in the embodiments of the present disclosure and a positive control sample ARV-471 (source: Innochem) were prepared to treat cells, and cells were treated at 37°C in a cell culture incubator with 5% CO2 for 9 days. Cell viability was detected using a CCK -8 kit (Beyotime , Product number: C0040) according to the manufacturer's instruction. […] Table 5 IC50 values for inhibition of the proliferation of MCF-7 cells by the PROTAC compounds of the present disclosure and positive control sample

[2] = target: T1, ERα (Homo sapiens, UniProt P03372); test: Degradation of ERα in MCF-7 cells (immunoblotting, 4 h)
T1 sequence (P03372 1-595): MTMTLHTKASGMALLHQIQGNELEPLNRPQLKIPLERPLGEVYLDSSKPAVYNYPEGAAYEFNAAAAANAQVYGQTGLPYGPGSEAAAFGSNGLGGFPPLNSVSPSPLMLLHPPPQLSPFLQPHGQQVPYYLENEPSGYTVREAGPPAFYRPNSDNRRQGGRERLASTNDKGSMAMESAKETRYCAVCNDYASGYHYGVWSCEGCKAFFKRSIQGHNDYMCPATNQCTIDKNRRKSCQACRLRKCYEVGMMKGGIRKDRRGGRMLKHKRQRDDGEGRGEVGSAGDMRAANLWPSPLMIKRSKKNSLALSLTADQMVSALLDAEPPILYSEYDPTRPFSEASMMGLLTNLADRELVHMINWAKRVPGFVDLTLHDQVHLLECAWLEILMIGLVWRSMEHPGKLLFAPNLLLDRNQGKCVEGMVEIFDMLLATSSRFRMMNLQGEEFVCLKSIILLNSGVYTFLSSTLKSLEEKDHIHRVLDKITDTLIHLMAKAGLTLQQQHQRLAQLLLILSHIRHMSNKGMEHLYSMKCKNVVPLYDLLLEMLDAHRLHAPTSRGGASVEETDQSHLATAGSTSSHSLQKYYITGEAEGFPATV
Experimental: MCF-7 cells were inoculated into 6-well plates at a density of 3×10^5 cells/well and cultured at 37°C, 5% CO2 for 24h. After the cells were attached to the wall, 1µL of the compound solution in dimethyl sulfoxide (final concentration 0.15-1000nM) was added and continued to be cultured in incubator at 37°C with 5% CO2 for 4 h. After 4 h, the culture medium was discarded, and each well was washed once with pre-cooled 1×DPBS, and the cells were lysed with a mixture of 50 µL of RIPA lysis buffer (P0013B, Beyotime) and 1× protease inhibitor (P1005, Beyotime), and then centrifuged at 14,000 g for 30 min at 4°C after resting on ice for 20 min, and the supernatant was carefully collected to detect the protein level of ERα by protein immunoblotting (Immunoblotting).
Protein immunoblotting: The total protein concentration in the collected cell lysate supernatant was determined by BCA Protein Concentration Assay Kit (Enhanced) (P0009, Beyotime). According to the total protein concentration detected by BCA, the protein was adjusted to 1 µg/µL with RIPA lysis buffer and 5× SDS-PAGE protein loading buffer (MB01015, Genscript), and the protein was denatured by water bath at 95°C for 5 min, and then centrifuged after denaturation to enrich the condensate on the wall of the centrifuge tubes as a loading sample. […] At the end of electrophoresis, the proteins in the SDS-PAGE gels were transferred to a PVDF membrane at a constant voltage of 100 V for 60 min. After that, the PVDF membrane corresponding to ERα protein and internal reference protein was cut out and incubated in 1×QµickBlock blocking solution (P0252, Beyotime) for 30 min at room temperature on a shaker. […] Protein profiles were analyzed by Image Studio Lite analysis software for grayscale values. Grayscale correction values were calculated for each sample using the Formula: corrected grayscale value = grayscale value of the target protein /corresponding grayscale value of the internal reference. The degradation rate for the compounds was then calculated by comparing the corrected grayscale values of the compound group to the control group. Table 7 Degradation rate (%) of ERα by the PROTAC compounds of the present disclosure and positive control sample in MCF-7 cells

[3] = target: T1, ERα; test: Degradation of ERα in T-47D cells (immunoblotting, 4 h); set-up: host or cells: T-47D
Experimental: T-47D cells were inoculated into 6-well plates at a density of 3×10^5 cells/well and cultured at 37°C, 5% CO2 for 24 h. After the cells were attached to the wall, 1µL of the compound solution in dimethyl sulfoxide (final concentration 0.15-1000 nM) was added and continued to be cultured in the incubator with 5% CO2 at 37°C for 4 h. After 4 h, the culture medium was discarded, and each well was washed once with pre-cooled 1×DPBS, and the cells were lysed with a mixture of 50 µL of RIPA lysis buffer (P0013B, Beyotime) and 1× protease inhibitor (P1005, Beyotime), and then centrifuged at 14,000 g for 30 min at 4°C after resting on ice for 20 min, and the supernatant was carefully collected to detect the protein level of ERα by protein immunoblotting (Immunoblotting).

Compound | pIC50 [1] | Degradation rate (%) of ERα in MCF-7 cells ([2]; 1nM compound) | Degradation rate (%) of ERα in MCF-7 cells ([2]; 10nM compound) | Degradation rate (%) of ERα in T-47D cells ([3]; 1nM compound) | Degradation rate (%) of ERα in T-47D cells ([3]; 10nM compound) | pIC50 ([1]; Homo sapiens, MCF7, 216 h)
O=C1CCC(N2Cc3cc4c(cc3C2=O)CCC2(CN(CC3CCC5(CC3)CCN(c3ccc([C@@H]6c7ccc(O)cc7CC[C@@H]6c6ccccc6)cc3)CC5)C2)O4)C(=O)N1 (stereo partly drawn) [A38] | 6.62 | -1% | -24% |  |  | 
O=C1CCC(N2Cc3cc4c(cc3C2=O)OC2(CC4)CN(C3CN(C4CCN(c5ccc([C@@H]6c7ccc(O)cc7CC[C@@H]6c6ccccc6)cc5)CC4)C3)C2)C(=O)N1 (stereo partly drawn) [A56] | 5.55 |  |  | 38% | 38% | 
O=C1CCC(N2Cc3cc4c(cc3C2=O)CCC2(CN(C3CN(C5CCN(c6ccc([C@@H]7c8ccc(O)cc8CC[C@@H]7c7ccccc7)cc6)CC5)C3)C2)O4)C(=O)N1 (stereo partly drawn) [A57] | 5.55 |  |  | 34% | 43% | 
O=C1CCC(N2Cc3c(ccc4c3OCC43CCN(C4CN(C5CCN(c6ccc([C@@H]7c8ccc(O)cc8CC[C@@H]7c7ccccc7)cc6)CC5)C4)CC3)C2=O)C(=O)N1 (stereo partly drawn) [A58] | 7.89 | 42% | 69% | 35% | 71% | 
O=C1CCC(N2C(=O)c3cc4c(cc3C2=O)OC2(CCN(C3CCN(C5CN(c6ccc([C@@H]7c8ccc(O)cc8CC[C@@H]7c7ccccc7)cc6)C5)CC3)CC2)C4)C(=O)N1 (stereo partly drawn) [A59] | 6.04 | 11% | 11% | 42% | 50% | 
O=C1CCC(N2Cc3c(ccc4c3OCC43CCN(C(=O)CN4CCC5(CC4)CCN(c4ccc([C@@H]6c7ccc(O)cc7CC[C@@H]6c6ccccc6)cc4)CC5)CC3)C2=O)C(=O)N1 (stereo partly drawn) [A62] | 7.82 | 52% | 82% | 73% | 89% | 
O=C1CCC(N2Cc3c(ccc4c3OCC43CCN(C(=O)CN4CCC5(CCN(c6ccc([C@@H]7c8ccc(O)cc8CC[C@@H]7c7ccccc7)cc6)CC5)C4)CC3)C2=O)C(=O)N1 (stereo partly drawn) [A63] | 8.49 | 69% | 68% | 67% | 80% | 
O=C1CCC(N2C(=O)c3cc4c(cc3C2=O)OC2(CCN(C(=O)CN3CCC5(CC3)CCN(c3ccc([C@@H]6c7ccc(O)cc7CC[C@@H]6c6ccccc6)cc3)CC5)CC2)C4)C(=O)N1 (stereo partly drawn) [A64] | 6.69 | 13% | 47% | 12% | 61% | 
O=C1CCC(N2Cc3c(ccc4c3OC3(CC4)CCN(C(=O)CN4CCC5(CC4)CCN(c4ccc([C@@H]6c7ccc(O)cc7CC[C@@H]6c6ccccc6)cc4)CC5)CC3)C2=O)C(=O)N1 (stereo partly drawn) [A65] | 6.90 | 23% | 23% | 14% | 50% | 
O=C1CCC(N2Cc3cc4c(cc3C2=O)OC2(CC4)CCN(C(=O)CN3CCC4(CC3)CCN(c3ccc([C@@H]5c6ccc(O)cc6CC[C@@H]5c5ccccc5)cc3)CC4)CC2)C(=O)N1 (stereo partly drawn) [A67] | 8.40 | 27% | 67% | 26% | 76% | 
O=C1CCC(N2C(=O)c3ccc4c(c3C2=O)OCC42CCN(C(=O)CN3CCC4(CC3)CCN(c3ccc([C@@H]5c6ccc(O)cc6CC[C@@H]5c5ccccc5)cc3)CC4)CC2)C(=O)N1 (stereo partly drawn) [A68] | 7.72 | 11% | 40% | 35% | 77% | 
O=C1CCC(N2Cc3c(ccc4c3OCC43CCN(CC(=O)N4CCC5(CC4)CCN(c4ccc([C@@H]6c7ccc(O)cc7CC[C@@H]6c6ccccc6)cc4)CC5)CC3)C2=O)C(=O)N1 (stereo partly drawn) [A74] |  | 28% | 62% | 73% | 87% | 
CN(C[C@H]1CC[C@H](C(=O)N2CCC3(CC2)COc2c3ccc3c2CN(C2CCC(=O)NC2=O)C3=O)CC1)[C@@H]1CCN(c2ccc([C@@H]3c4ccc(O)cc4CC[C@@H]3c3ccccc3)cc2)C[C@@H]1F (stereo partly drawn) [D12] |  | 39% | 61% | 55% | 81% | 
C[C@]12CC[C@@H]3c4ccc(O)cc4CC[C@H]3[C@@H]1CC[C@@H]2O [E2] |  |  |  |  |  | 7.46
O=C1CCC(N2Cc3c(ccc4c3OCC43CCN(C[C@H]4CC[C@H](OC5CCN(c6ccc([C@@H]7c8ccc(O)cc8CC[C@@H]7c7ccccc7)cc6)CC5)CC4)CC3)C2=O)C(=O)N1 (stereo partly drawn) [G24] |  |  |  | 47% | 81% | 
O=C1CCC(N2Cc3c(ccc4c3OCC43CCN(S(=O)(=O)[C@H]4CC[C@H](C(=O)N5CCN(c6ccc([C@@H]7c8ccc(O)cc8CC[C@@H]7c7ccccc7)cc6)CC5)CC4)CC3)C2=O)C(=O)N1 (stereo partly drawn) [G26] | 4.49 | 37% | 66% |  |  | 
O=C1CCC(N2C(=O)c3cc4c(cc3C2=O)OC2(CC4)CN(CC3CCN(c4ccc([C@@H]5c6ccc(O)cc6CC[C@@H]5c5ccccc5)cc4)CC3)C2)C(=O)N1 (stereo partly drawn) [H1] |  | -13% | -16% | -6% | -15% | 
O=C1CCC(N2C(=O)c3ccc4c(c3C2=O)OCC42CCN(C3CC4(CCN(c5ccc([C@@H]6c7ccc(O)cc7CC[C@@H]6c6ccccc6)cc5)CC4)C3)CC2)C(=O)N1 (stereo partly drawn) [L17] |  | -2% | 10% | 24% | 23% | 
CC1(C(=O)N2CCC(N3CCC4(CC3)COc3c4ccc4c3CN(C3CCC(=O)NC3=O)C4=O)CC2)CCN(c2ccc([C@@H]3c4ccc(O)cc4CC[C@@H]3c3ccccc3)cc2)CC1 (stereo partly drawn) [N 1] | 7.83 |  |  |  |  | 
